This note sets out measurements from ChEMBL document CHEMBL2401638, “Design and synthesis of biquinolone-isoniazid hybrids as a new class of antitubercular and antimicrobial agents” (Eur J Med Chem, 2013).

Structures are written as SMILES. Values after ≈ are worked out from the molar mass of the structure shown.

Series [1] is described as follows: Cytotoxicity in Artemia cysts assessed as mortality of nauplii after 24 hrs. Type of series: organism-based. As to conditions: in vivo.
Series [2] is described as follows: Cytotoxicity in Artemia cysts assessed as mortality of nauplii at 40 ug/mL after 24 hrs relative to control. The format is organism-based. As to conditions: in vivo.
The nature of series [3]: Cytotoxicity in Artemia cysts assessed as mortality of nauplii at 50 ug/mL after 24 hrs relative to control. Type of series: organism-based. As to conditions: in vivo.
Series [4] in a line: Cytotoxicity in Artemia cysts assessed as mortality of nauplii at 30 ug/mL after 24 hrs relative to control. The format is organism-based. Particulars: in vivo.
Series [5] in a line: Cytotoxicity in Artemia cysts assessed as mortality of nauplii at 20 ug/mL after 24 hrs relative to control. The format is organism-based. Particulars: in vivo.
A short description of series [6]: Cytotoxicity in Artemia cysts assessed as mortality of nauplii at 10 ug/mL after 24 hrs relative to control. Type of series: organism-based. As to conditions: in vivo.
The nature of series [7]: Cytotoxicity in Artemia cysts assessed as mortality of nauplii at 5 ug/mL after 24 hrs relative to control. The format is organism-based. As to conditions: in vivo.
Series [8] has as its system Mycobacterium tuberculosis. As to the kind of experiment: Antituberculosis activity against Mycobacterium tuberculosis H37Rv assessed as growth inhibition after 12 to 28 days by Lowenstein-Jensen method. Type of series: functional.
Series [9] concerns Mycobacterium tuberculosis. As to the kind of experiment: Antituberculosis activity against Mycobacterium tuberculosis H37Rv assessed as growth inhibition at 250 ug/ml after 12 to 28 days by Lowenstein-Jensen method relative to control. Type of series: functional. Particulars: read-out: GI.
Another series deals with Trichophyton rubrum. As to the kind of experiment: Antifungal activity against Trichophyton rubrum MTCC 296 assessed as growth inhibition by broth microdilution method. The format is functional. For orientation: In broth dilution the organism is exposed to a series of concentrations in liquid medium.
In a further series the test system is Candida albicans. As to the kind of experiment: Antifungal activity against Candida albicans MTCC 227 assessed as growth inhibition by broth microdilution method. Type of series: functional.
A further series concerns Pseudomonas aeruginosa. As to the kind of experiment: Antibacterial activity against Pseudomonas aeruginosa MTCC 1688 assessed as growth inhibition by broth microdilution method. The format is functional.
Another series relates to Salmonella typhi. As to the kind of experiment: Antibacterial activity against Salmonella typhi MTCC 98 assessed as growth inhibition by broth microdilution method. The format is functional, Salmonella enterica subsp. enterica serovar Typhi. As to conditions: Salmonella enterica.
In a further series the test system is Clostridium tetani. As to the kind of experiment: Antibacterial activity against Clostridium tetani MTCC 449 assessed as growth inhibition by broth microdilution method. Type of series: functional.
Another series deals with Escherichia coli. As to the kind of experiment: Antibacterial activity against Escherichia coli MTCC 443 assessed as growth inhibition by broth microdilution method. The format is functional.
A further series deals with Staphylococcus aureus. As to the kind of experiment: Antibacterial activity against Staphylococcus aureus MTCC 96 assessed as growth inhibition by broth microdilution method. Type of series: functional.
A further series has as its system Bacillus subtilis. As to the kind of experiment: Antibacterial activity against Bacillus subtilis MTCC 441 assessed as growth inhibition by broth microdilution method. The format is functional.

For the molecule `C=CCn1c(=O)c(C2C(C(=O)OC)=C(N)N(NC(=O)c3ccncc3)C3=C2C(=O)CCC3)cc2cc(OC)ccc21` (stereo unspecified), the LC50 at 24 h in series [1] was 19.7 µg/mL (≈ 35.4 µM). For the same molecule, the mortality at 24 h, 40 ug/mL in series [2] is 80%. Moreover, the mortality at 24 h, 50 ug/mL in series [3] was determined as 90%. In series [4], the mortality at 24 h, 30 ug/mL is 60%. Besides, in [5], the mortality at 24 h, 20 ug/mL is 40%. Moreover, the mortality at 24 h, 10 ug/mL in [6] is 20%. The mortality at 24 h, 5 ug/mL in series [7] turned out to be 10%. For the same molecule, the MIC in series [8] is 50 µg/mL (≈ 90 µM); in the series with Trichophyton rubrum, over 1000 µg/mL; in the series on Candida albicans it was 1000 µg/mL; with Pseudomonas aeruginosa, 125 µg/mL; with Salmonella typhi it was 125 µg/mL; in the series on Clostridium tetani, 125 µg/mL. Moreover, the MIC in the series on Escherichia coli was 100 µg/mL; with Staphylococcus aureus, 200 µg/mL; with Bacillus subtilis, 50 µg/mL. Also, in series [9], the inhibition of growth at 250 µg/mL is 98%.

Consider `C=CCn1c(=O)c(C2C(C(=O)OC(C)C)=C(N)N(NC(=O)c3ccncc3)C3=C2C(=O)CC(C)(C)C3)cc2cc(Cl)ccc21` (stereo unspecified), for which the median lethal concentration (LC50) at 24 h in [1] is 24.5 µg/mL (≈ 39.7 µM). In series [2], the mortality at 24 h, 40 ug/mL was 70%. In addition, in [3], the mortality at 24 h, 50 ug/mL worked out at 90%. The mortality at 24 h, 30 ug/mL in series [4] is 50%. For the same molecule, the mortality at 24 h, 20 ug/mL in series [5] was 30%. In addition, the mortality at 24 h, 10 ug/mL in [6] came out at 10%. In [7], the mortality at 24 h, 5 ug/mL was 0%. Besides, the MIC in series [8] was found to be 62.5 µg/mL (≈ 101 µM); in the series with Trichophyton rubrum, 500 µg/mL; with Candida albicans it was 1000 µg/mL; in the series on Pseudomonas aeruginosa it was 500 µg/mL; in the series on Salmonella typhi, 125 µg/mL; with Clostridium tetani, 125 µg/mL. The MIC is 200 µg/mL with Escherichia coli, 125 µg/mL in the series on Staphylococcus aureus and 500 µg/mL in the series with Bacillus subtilis. For the same molecule, the inhibition of growth at 250 µg/mL in series [9] was 94%.

For `CO[C@H]1/C=C/O[C@@]2(C)Oc3c(C)c(O)c4c(O)c(c(/C=N/N5CCN(C)CC5)c(O)c4c3C2=O)NC(=O)/C(C)=C\C=C\[C@H](C)[C@H](O)[C@@H](C)[C@@H](O)[C@@H](C)[C@H](OC(C)=O)[C@@H]1C` [RIFAMPIN], the MIC in series [8] stood at 40 µg/mL (≈ 48.6 µM). Besides, the inhibition of growth at 250 µg/mL in series [9] was found to be 98%.

`C=CCn1c(=O)c(C2C(C(=O)OC(C)C)=C(N)N(NC(=O)c3ccncc3)C3=C2C(=O)CC(C)(C)C3)cc2cc(C)ccc21` (stereo unspecified): in series [1], the LC50 at 24 h is 35.4 µg/mL (≈ 59.4 µM). Also, the mortality at 24 h, 40 ug/mL in [2] was 50%. The mortality at 24 h, 50 ug/mL in series [3] turned out to be 70%. Besides, in series [4], the mortality at 24 h, 30 ug/mL is 40%. The mortality at 24 h, 20 ug/mL in [5] is 30%. In addition, the mortality at 24 h, 10 ug/mL in series [6] was 10%. Moreover, the mortality at 24 h, 5 ug/mL in [7] was 0%. Besides, the MIC is 12.5 µg/mL (≈ 21 µM) in series [8]; 1000 µg/mL with Trichophyton rubrum; 500 µg/mL in the series with Candida albicans; 200 µg/mL in the series on Pseudomonas aeruginosa; 200 µg/mL in the series on Salmonella typhi; 500 µg/mL in the series on Clostridium tetani. The MIC is 125 µg/mL in the series with Escherichia coli, 500 µg/mL in the series with Staphylococcus aureus and 500 µg/mL in the series with Bacillus subtilis. Also, the inhibition of growth at 250 µg/mL in [9] was determined as 99%.

`C=CCn1c(=O)c(C2C(C(=O)OCC)=C(N)N(NC(=O)c3ccncc3)C3=C2C(=O)CC(C)(C)C3)cc2cc(OC)ccc21` (stereo unspecified): the LC50 at 24 h in [1] was found to be 26.6 µg/mL (≈ 44.5 µM). Besides, the mortality at 24 h, 40 ug/mL in series [2] was 60%. For the same molecule, in series [3], the mortality at 24 h, 50 ug/mL was determined as 80%. The mortality at 24 h, 30 ug/mL in [4] came to 50%. Moreover, the mortality at 24 h, 20 ug/mL in series [5] was determined as 30%. The mortality at 24 h, 10 ug/mL in series [6] turned out to be 20%. Also, in [7], the mortality at 24 h, 5 ug/mL worked out at 10%. In addition, the minimal inhibitory concentration (MIC) worked out at 100 µg/mL (≈ 167 µM) in series [8]; 1000 µg/mL in the series on Trichophyton rubrum; 500 µg/mL in the series on Candida albicans; 125 µg/mL with Pseudomonas aeruginosa; 125 µg/mL in the series on Salmonella typhi; 250 µg/mL with Clostridium tetani. Besides, the MIC with Escherichia coli amounted to 250 µg/mL; in the series on Staphylococcus aureus, 200 µg/mL; with Bacillus subtilis, 125 µg/mL. Further, in series [9], the inhibition of growth at 250 µg/mL is 96%.

Turning to `COc1cc([C@@H]2c3cc4c(cc3[C@@H](O[C@@H]3O[C@@H]5CO[C@@H](C)O[C@H]5[C@H](O)[C@H]3O)[C@H]3COC(=O)[C@H]23)OCO4)cc(OC)c1O` [ETOPOSIDE], in series [1], the LC50 at 24 h amounted to 7.46 µg/mL (≈ 12.7 µM).

Turning to `C=CCn1c(=O)c(C2C(C(=O)OC)=C(N)N(NC(=O)c3ccncc3)C3=C2C(=O)CC(C)(C)C3)cc2cc(C)ccc21` (stereo unspecified), the 50% lethal concentration (LC50) at 24 h in [1] worked out at 34.6 µg/mL (≈ 60.9 µM). In [2], the mortality at 24 h, 40 ug/mL amounted to 60%. In addition, the mortality at 24 h, 50 ug/mL in [3] was found to be 70%. Further, in series [4], the mortality at 24 h, 30 ug/mL came out at 40%. The mortality at 24 h, 20 ug/mL in [5] was 20%. Also, the mortality at 24 h, 10 ug/mL in series [6] came to 10%. For the same molecule, in series [7], the mortality at 24 h, 5 ug/mL is 0%. Besides, the MIC in series [8] is 25 µg/mL (≈ 44 µM); in the series with Trichophyton rubrum it was over 1000 µg/mL; in the series on Candida albicans, 500 µg/mL; in the series with Pseudomonas aeruginosa, 250 µg/mL; with Salmonella typhi it was 100 µg/mL; in the series with Clostridium tetani, 500 µg/mL. Besides, the MIC with Escherichia coli is 125 µg/mL; in the series on Staphylococcus aureus, 500 µg/mL; in the series with Bacillus subtilis, 200 µg/mL. Besides, in [9], the inhibition of growth at 250 µg/mL amounted to 99%.

With `C=CCn1c(=O)c(C2C(C(=O)OCC)=C(N)N(NC(=O)c3ccncc3)C3=C2C(=O)CCC3)cc2cc(OC)ccc21` (stereo unspecified), in series [9], the inhibition of growth at 250 µg/mL stood at 54%. Also, the MIC is 1000 µg/mL in the series on Trichophyton rubrum; 250 µg/mL in the series on Candida albicans; 200 µg/mL in the series with Pseudomonas aeruginosa; 500 µg/mL in the series with Salmonella typhi; 100 µg/mL in the series with Clostridium tetani; 250 µg/mL in the series on Escherichia coli. Further, the MIC in the series on Staphylococcus aureus was determined as 125 µg/mL; in the series on Bacillus subtilis, 200 µg/mL.

Turning to `C=CCn1c(=O)c(C2C(C(=O)OCC)=C(N)N(NC(=O)c3ccncc3)C3=C2C(=O)CC(C)(C)C3)cc2cc(C)ccc21` (stereo unspecified), the LC50 at 24 h in series [1] worked out at 28.6 µg/mL (≈ 49.1 µM). The mortality at 24 h, 40 ug/mL in [2] was 60%. For the same molecule, the mortality at 24 h, 50 ug/mL in [3] stood at 80%. The mortality at 24 h, 30 ug/mL in [4] stood at 40%. For the same molecule, in series [5], the mortality at 24 h, 20 ug/mL was determined as 30%. In addition, the mortality at 24 h, 10 ug/mL in series [6] came out at 20%. The mortality at 24 h, 5 ug/mL in series [7] came out at 0%. Further, the MIC in series [8] is 62.5 µg/mL (≈ 107 µM); with Trichophyton rubrum, 1000 µg/mL; in the series on Candida albicans it was 500 µg/mL; in the series with Pseudomonas aeruginosa it was 500 µg/mL; in the series with Salmonella typhi, 125 µg/mL; in the series with Clostridium tetani, 125 µg/mL. In addition, the MIC with Escherichia coli amounted to 62.5 µg/mL; in the series on Staphylococcus aureus, 125 µg/mL; in the series with Bacillus subtilis, 500 µg/mL. Moreover, the inhibition of growth at 250 µg/mL in series [9] was 94%.

As for `NNC(=O)c1ccncc1` [ISONIAZID], the MIC in series [8] came out at 0.2 µg/mL (≈ 1.46 µM). Also, the inhibition of growth at 250 µg/mL in series [9] is 99%.

Broadly, the LC50 is the concentration lethal to half of the exposed cells or organisms. One may read the mortality as the percentage killed. For orientation: MIC means the lowest concentration that inhibits growth of the organism.
